Assay: recombinant barcode read abundance after kanamycin selection (control-corrected) (log10(CPM+1)); higher = more efficient recombination; sequences stand for … in AGTGCAGAGAAAATCGGCCAGTTTTCTCTGCCTGCAGTCCGCATGCCGT…AGATTTATGCAGCGGACTGCCTTTCTCCCAAAGTGATAAACCGGACAGTATCATGGACCGGTTTTCCCGGTAATCCGTATTTGCAAGGTTGGTTTCACT; site = the 11-nt target
Procedure: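 Pooled E. coli target-specificity screen for the IS621 bridge recombinase. Each library plasmid pairs an 11-nt target (CT core) with a bridge RNA whose target-binding loop (9-nt LTG + 4-nt RTG) is reprogrammed; the rest of the 177-nt WT IS621 bridge RNA scaffold is fixed. The plasmid is co-electroporated with a WT donor plasmid; recombinase is induced with 0.1 mM IPTG and recombinants are selected on kanamycin. Recombinant barcodes are sequenced, converted to CPM, averaged over two biological replicates and corrected by the unselected control CPM. Molecule = full bridge RNA written as DNA: LTG = specificity nt 1-9, RTG = reverse complement of specificity nt 8-11, in the WT scaffold.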
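Note: IS621 recombinase and bridge RNA in Escherichia coli cells.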

Sequence | recombinant barcode read abundance (log10)
ACCCTATCTTGGGTTCTAACCTGTTGCCT (site ACCCTAACTCG) | 0.0342
ACCCTATCTTGGGTTCTAACCTGTTGCCT (site ACCCTATCTAG) | 1.39
ACCCTCCCTTGGGTTCTAACCTGTTGCTA (site ACCCTCCCTTA) | 2.47
ACCCTCCCTTGGGTTCTAACCTGTTGCTA (site ACTCTACCTTA) | 0.136
ACCGGTCCTTGGGTTCTAACCTGTTGCGT (site ACCGGTCCTAC) | 2.14
ACCGGTCCTTGGGTTCTAACCTGTTGCGT (site ATCGTTCCTAC) | 0.0193
ACCGTACCTTGGGTTCTAACCTGTTGCCT (site ACCGTACCTAG) | 0.304
ACCGTACCTTGGGTTCTAACCTGTTGCCT (site ACCGTAGCTAG) | 0.0594
ACCGTTCCTTGGGTTCTAACCTGTTGCCT (site ACCGTTCCTAG) | 0.78
ACCGTTCCTTGGGTTCTAACCTGTTGCCT (site CTTTAAGCTTA) | 0.0328
ACCTAACCTTGGGTTCTAACCTGTTGCAT (site ACCTAACCTAT) | 1.67
ACCTAACCTTGGGTTCTAACCTGTTGCAT (site ATCTATCCTAT) | 0.214
ACCTACCCTTGGGTTCTAACCTGTTGCGG (site ACCTACCCTCC) | 2.33
ACCTACCCTTGGGTTCTAACCTGTTGCGG (site CGAACATCTAA) | 0.169
ACCTACCCTTGGGTTCTAACCTGTTGCGT (site ACATATCCTAC) | 0.0563
ACCTACCCTTGGGTTCTAACCTGTTGCGT (site ACCTACCCTAC) | 1.54
ACCTACTCTTGGGTTCTAACCTGTTGCCT (site ACCTACGCTAG) | 0.0426
ACCTACTCTTGGGTTCTAACCTGTTGCCT (site ACCTACTCTAG) | 1.36
ACCTGAACTTGGGTTCTAACCTGTTGCCT (site ACATGAACTAG) | 0.056
ACCTGAACTTGGGTTCTAACCTGTTGCCT (site ACCTGAACTAG) | 0.75
ACCTGAACTTGGGTTCTAACCTGTTGCCT (site ACGTGAACTAG) | 0.0712
ACCTGAACTTGGGTTCTAACCTGTTGCCT (site ACTTGAACTAG) | 0.0237
ACCTGTGCTTGGGTTCTAACCTGTTGCCT (site ACCTGTGCTAG) | 0.874
ACCTGTGCTTGGGTTCTAACCTGTTGCCT (site ATCTGTTCTAG) | 0.151
ACCTTGTCTTGGGTTCTAACCTGTTGCCT (site ACATTGTCTAG) | 0.217

Sequence | recombinant barcode read abundance (log10)
ACCTTGTCTTGGGTTCTAACCTGTTGCCT (site ACCTTGTCTAG) | 0.93
ACCTTGTCTTGGGTTCTAACCTGTTGCCT (site ACGTTGTCTAG) | 0.0273
ACCTTGTCTTGGGTTCTAACCTGTTGCCT (site ACTTTGTCTAG) | 0.0709
ACGAACCCTTGGGTTCTAACCTGTTGCCT (site ACGAACCCTAG) | 1.42
ACGAACCCTTGGGTTCTAACCTGTTGCCT (site ACGGACCCTAT) | 0.247
ACGAAGACTTGGGTTCTAACCTGTTGCCG (site ACGAAGACTCG) | 1.08
ACGAAGACTTGGGTTCTAACCTGTTGCCG (site ACGAGGACTCG) | 0.0668
ACGACGTCTTGGGTTCTAACCTGTTGCTT (site ACGACGTCTAA) | 0.292
ACGACGTCTTGGGTTCTAACCTGTTGCTT (site TCGACGCCTAA) | 0.08
ACGACTACTTGGGTTCTAACCTGTTGCCG (site ACGACTACTCG) | 0.618
ACGACTACTTGGGTTCTAACCTGTTGCCG (site TATTGGCCTAC) | 0.123
ACGATAACTTGGGTTCTAACCTGTTGCCA (site ACGATAACTTG) | 0.215
ACGATAACTTGGGTTCTAACCTGTTGCCA (site CTAGATTCTAT) | 0.363
ACGATACCTTGGGTTCTAACCTGTTGCCT (site ACGATACCTAG) | 0.967
ACGATACCTTGGGTTCTAACCTGTTGCCT (site ACGTTACCTAG) | 0.0943
ACGATATCTTGGGTTCTAACCTGTTGCCT (site AAGATATCTAG) | 0.181
ACGATATCTTGGGTTCTAACCTGTTGCCT (site ACGATATCTAG) | 1.37
ACGATATCTTGGGTTCTAACCTGTTGCCT (site AGGATATCTAG) | 0.549
ACGATATCTTGGGTTCTAACCTGTTGCCT (site ATGATATCTAG) | 0.0859
ACGATCGCTTGGGTTCTAACCTGTTGCCT (site ACGAACGCTAG) | 0.08
ACGATCGCTTGGGTTCTAACCTGTTGCCT (site ACGACCGCTAG) | 0.197
ACGATCGCTTGGGTTCTAACCTGTTGCCT (site ACGAGCGCTAG) | 0.12
ACGATCGCTTGGGTTCTAACCTGTTGCCT (site ACGATCGCTAG) | 1.25
ACGATTCCTTGGGTTCTAACCTGTTGCCT (site AAGATTCCTAG) | 0.132
ACGATTCCTTGGGTTCTAACCTGTTGCCT (site ACGATTCCTAG) | 0.355

Sequence | recombinant barcode read abundance (log10)
ACGATTCCTTGGGTTCTAACCTGTTGCCT (site AGGATTCCTAG) | 0.101
ACGATTCCTTGGGTTCTAACCTGTTGCCT (site ATGATTCCTAG) | 0.0978
ACGCACACTTGGGTTCTAACCTGTTGCCT (site ACGCACACTAG) | 0.214
ACGCACACTTGGGTTCTAACCTGTTGCCT (site CCGCACACTAG) | 0.182
ACGCACACTTGGGTTCTAACCTGTTGCCT (site GCGCACACTAG) | 0.236
ACGCACACTTGGGTTCTAACCTGTTGCCT (site TCGCACACTAG) | 0.233
ACGCACCCTTGGGTTCTAACCTGTTGCCA (site ACGAGCCCTTG) | 0.123
ACGCACCCTTGGGTTCTAACCTGTTGCCA (site ACGCACCCTTG) | 0.379
ACGCACGCTTGGGTTCTAACCTGTTGCGG (site ACACACCCTCC) | 0.0809
ACGCACGCTTGGGTTCTAACCTGTTGCGG (site ACGCACGCTCC) | 0.979
ACGCCGACTTGGGTTCTAACCTGTTGCCT (site ACGCCGACTAG) | 0.432
ACGCCGACTTGGGTTCTAACCTGTTGCCT (site ACGCGGACTAG) | 0.285
ACGCGAGCTTGGGTTCTAACCTGTTGCCG (site ACGCGAGCTCA) | 0.209
ACGCGAGCTTGGGTTCTAACCTGTTGCCG (site ACGCGAGCTCC) | 0.345
ACGCGAGCTTGGGTTCTAACCTGTTGCCG (site ACGCGAGCTCG) | 0.288
ACGCGAGCTTGGGTTCTAACCTGTTGCCG (site ACGCGAGCTCT) | 0.215
ACGCGAGCTTGGGTTCTAACCTGTTGCTG (site ACGCGAGCTCA) | 0.0871
ACGCGAGCTTGGGTTCTAACCTGTTGCTG (site ACGCGAGCTCC) | 0
ACGCGAGCTTGGGTTCTAACCTGTTGCTG (site ACGCGAGCTCG) | 0.14
ACGCGAGCTTGGGTTCTAACCTGTTGCTG (site ACGCGAGCTCT) | 0.187
ACGCGTCCTTGGGTTCTAACCTGTTGCCG (site ACGCGTCCTCG) | 0.263
ACGCGTCCTTGGGTTCTAACCTGTTGCCG (site TCGCGTCCTCG) | 0.355
ACGCTAGCTTGGGTTCTAACCTGTTGCCT (site ACGCTAGCTAG) | 0.357
